# Experiments:
# bedstraw = assay: Test B pre/postemergence bedstraw; assay type: in vivo, Galium aparine
# Outline: (§1)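 Response is a visual 0-to-10 score relative to untreated plants, where 0 means no effect and 10 means complete control, taken twelve to sixteen days after application. Treatments went onto soil at planting and onto foliage of 1- to 4-leaf plants, using a surfactant-containing non-phytotoxic solvent.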
# velvetleaf = assay: Test B pre/postemergence velvetleaf; assay type: in vivo, Abutilon theophrasti
# Outline: as §1
# crabgrass = assay: Test B pre/postemergence crabgrass; assay type: in vivo, Digitaria sanguinalis
# Outline: as §1
# soybean = assay: Test B pre/postemergence soybean; assay type: in vivo, Glycine max
# Outline: as §1
# morningglory = assay: Test B pre/postemergence morningglory; assay type: in vivo, Ipomoea hederacea
# Outline: as §1
# pigweed = assay: Test B pre/postemergence pigweed; assay type: in vivo, Amaranthus retroflexus
# Outline: as §1
# blackgrass = assay: Test B pre/postemergence blackgrass; assay type: in vivo, Alopecurus myosuroides
# Outline: as §1
# corn = assay: Test B pre/postemergence corn; assay type: in vivo, Zea mays
# Outline: as §1
# wild oat = assay: Test B pre/postemergence wild oat; assay type: in vivo, Avena fatua
# Outline: as §1
# surinam grass = assay: Test B pre/postemergence surinam grass; assay type: in vivo, Brachiaria decumbens
# Outline: as §1
# sugar beet = assay: Test B pre/postemergence sugar beet; assay type: in vivo, Beta vulgaris
# Outline: as §1
# cocklebur = assay: Test B pre/postemergence cocklebur; assay type: in vivo, Xanthium strumarium
# Outline: as §1
# giant foxtail = assay: Test B pre/postemergence giant foxtail; assay type: in vivo, Setaria faberii
# Outline: as §1
# purple nutsedge = assay: Test B pre/postemergence purple nutsedge; assay type: in vivo, Cyperus rotundus
# Outline: as §1
# rape = assay: Test B pre/postemergence rape; assay type: in vivo, Brassica napus
# Outline: as §1
# wheat = assay: Test B pre/postemergence wheat; assay type: in vivo, Triticum aestivum
# Outline: as §1
# [1] = Preemergence, Rate 62 g/ha, scale of 0 to 10 where 0 is no effect and 10 is complete control
# [2] = Preemergence, Rate 125 g/ha, 0 is no effect, 10 is complete control
# [3] = Preemergence, Rate 250 g/ha, scale 0 to 10, 0 is no effect, 10 is complete control
# [4] = Preemergence, Rate 500 g/ha, scale 0 to 10 (0 no effect, 10 complete control)
# [5] = Rate 62 g/ha, Postemergence, scale of 0 to 10 where 0 is no effect and 10 is complete control
# [6] = Rate 125 g/ha, Postemergence, scale 0 to 10
# [7] = Rate 500 g/ha, Postemergence, scale 0 to 10
compound,measurement,setting,value
CC(C)N(C(=O)n1oc(=O)n(CC2CO2)c1=O)c1ccc(F)cc1 (centres unmarked) [Compound 188],Bedstraw plant response rating,bedstraw; [1],0
same,Bedstraw plant response rating (0 to 10 scale),bedstraw; [2],0
same,Bedstraw plant response rating,bedstraw; [3],0
same,Bedstraw plant response rating,bedstraw; [4],0
same,Bedstraw plant response rating,bedstraw; [5],0
same,Bedstraw plant response rating,bedstraw; [6],0
same,"Plant response rating (0 to 10; 0 is no effect, 10 is complete control), Bedstraw","bedstraw; Rate 250 g/ha, Postemergence",3
same,Bedstraw plant response rating,bedstraw; [7],5
same,Velvetleaf plant response rating,velvetleaf; [1],0
same,Velvetleaf plant response rating,velvetleaf; [3],0
same,Velvetleaf plant response rating,velvetleaf; [4],2
same,Velvetleaf plant response rating,velvetleaf; [5],0
same,Velvetleaf plant response rating,velvetleaf; [6],0
same,"Plant response rating (0 to 10; 0 is no effect, 10 is complete control), Velvetleaf","velvetleaf; Rate 250 g/ha, Postemergence",0
same,Crabgrass plant response rating,crabgrass; [1],0
same,Crabgrass plant response rating (0 to 10 scale),crabgrass; [2],0
same,Crabgrass plant response rating,crabgrass; [3],0
same,Crabgrass plant response rating,crabgrass; [4],0
same,Crabgrass plant response rating,crabgrass; [5],0
same,Crabgrass plant response rating,crabgrass; [6],0
same,"Plant response rating (0 to 10; 0 is no effect, 10 is complete control), Crabgrass","crabgrass; Rate 250 g/ha, Postemergence",3
same,Crabgrass plant response rating,crabgrass; [7],3
same,Soybean plant response rating,soybean; [1],0
same,Soybean plant response rating (0 to 10 scale),soybean; [2],0
same,Soybean plant response rating,soybean; [3],0
same,Soybean plant response rating,soybean; [4],0
same,Soybean plant response rating,soybean; [5],1
same,Soybean plant response rating,soybean; [6],2
same,"Plant response rating (0 to 10; 0 is no effect, 10 is complete control), Soybean","soybean; Rate 250 g/ha, Postemergence",2
same,Soybean plant response rating,soybean; [7],3
same,Morningglory plant response rating,morningglory; [1],0
same,Morningglory plant response rating (0 to 10 scale),morningglory; [2],0
same,Morningglory plant response rating,morningglory; [3],0
same,Morningglory plant response rating,morningglory; [4],0
same,Morningglory plant response rating,morningglory; [5],0
same,Morningglory plant response rating,morningglory; [6],0
same,"Plant response rating (0 to 10; 0 is no effect, 10 is complete control), Morningglory","morningglory; Rate 250 g/ha, Postemergence",0
same,Morningglory plant response rating,morningglory; [7],0
same,Redroot pigweed plant response rating,pigweed; [1],0
same,Redroot pigweed plant response rating (0 to 10 scale),pigweed; [2],0
same,Redroot pigweed plant response rating,pigweed; [3],0
same,Redroot pigweed plant response rating,pigweed; [4],0
same,Redroot pigweed plant response rating,pigweed; [5],0
same,Redroot pigweed plant response rating,pigweed; [6],0
same,"Plant response rating (0 to 10; 0 is no effect, 10 is complete control), Redroot pigweed","pigweed; Rate 250 g/ha, Postemergence",0
same,Redroot pigweed plant response rating,pigweed; [7],3
same,Blackgrass plant response rating,blackgrass; [1],0
same,Blackgrass plant response rating (0 to 10 scale),blackgrass; [2],0
same,Blackgrass plant response rating,blackgrass; [3],0
same,Blackgrass plant response rating,blackgrass; [4],0
same,Blackgrass plant response rating,blackgrass; [5],0
same,Blackgrass plant response rating,blackgrass; [6],0
same,"Plant response rating (0 to 10; 0 is no effect, 10 is complete control), Blackgrass","blackgrass; Rate 250 g/ha, Postemergence",0
same,Blackgrass plant response rating,blackgrass; [7],3
same,Corn plant response rating,corn; [1],0
same,Corn plant response rating (0 to 10 scale),corn; [2],0
same,Corn plant response rating,corn; [3],0
same,Corn plant response rating,corn; [4],0
same,Corn plant response rating,corn; [5],0
same,Corn plant response rating,corn; [6],0
same,"Plant response rating (0 to 10; 0 is no effect, 10 is complete control), Corn","corn; Rate 250 g/ha, Postemergence",0
same,Corn plant response rating,corn; [7],0
same,Wild oats plant response rating,wild oat; [1],0
same,Wild oats plant response rating,wild oat; [3],0
same,Wild oats plant response rating,wild oat; [4],0
same,Wild oats plant response rating,wild oat; [5],0
same,Wild oats plant response rating,wild oat; [6],0
same,"Plant response rating (0 to 10; 0 is no effect, 10 is complete control), Wild oats","wild oat; Rate 250 g/ha, Postemergence",0
same,B. signalgrass plant response rating,surinam grass; [1],0
same,B. signalgrass plant response rating (0 to 10 scale),surinam grass; [2],0
same,B. signalgrass plant response rating,surinam grass; [3],6
same,B. signalgrass plant response rating,surinam grass; [4],7
same,B. signalgrass plant response rating,surinam grass; [5],0
same,B. signalgrass plant response rating,"surinam grass; Rate 125 g/ha, Postemergence, scale 0 (no effect) to 10 (complete control)",0
same,"Plant response rating, B. signalgrass","surinam grass; Rate 250 g/ha, Postemergence, scale 0 to 10, 0 is no effect, 10 is complete control",0
same,B. signalgrass plant response rating,"surinam grass; Rate 500 g/ha, Postemergence, scale 0 to 10, 0 no effect, 10 complete control",0
same,Sugarbeets plant response rating,sugar beet; [1],0
same,Sugarbeets plant response rating (0 to 10 scale),sugar beet; [2],0
same,Sugarbeets plant response rating,sugar beet; [3],0
same,Sugarbeets plant response rating,sugar beet; [4],6
same,Sugarbeets plant response rating,sugar beet; [5],0
same,Sugarbeets plant response rating,sugar beet; [6],0
same,"Plant response rating (0 to 10; 0 is no effect, 10 is complete control), Sugarbeets","sugar beet; Rate 250 g/ha, Postemergence",0
same,Sugarbeets plant response rating,sugar beet; [7],7
same,Cocklebur plant response rating,cocklebur; [1],0
same,Cocklebur plant response rating (0 to 10 scale),cocklebur; [2],0
same,Cocklebur plant response rating,cocklebur; [3],0
same,Cocklebur plant response rating,cocklebur; [4],0
same,Cocklebur plant response rating,cocklebur; [5],0
same,Cocklebur plant response rating,cocklebur; [6],0
same,"Plant response rating (0 to 10; 0 is no effect, 10 is complete control), Cocklebur","cocklebur; Rate 250 g/ha, Postemergence",0
same,Cocklebur plant response rating,cocklebur; [7],0
same,Giant foxtail plant response rating,giant foxtail; [1],0
same,Giant foxtail plant response rating (0 to 10 scale),giant foxtail; [2],2
same,Giant foxtail plant response rating,giant foxtail; [3],4
same,Giant foxtail plant response rating,giant foxtail; [4],7
same,Giant foxtail plant response rating,giant foxtail; [5],0
same,Giant foxtail plant response rating,giant foxtail; [6],0
same,"Plant response rating (0 to 10; 0 is no effect, 10 is complete control), Giant foxtail","giant foxtail; Rate 250 g/ha, Postemergence",2
same,Giant foxtail plant response rating,giant foxtail; [7],4
same,Nutsedge plant response rating,purple nutsedge; [1],0
same,Nutsedge plant response rating (0 to 10 scale),purple nutsedge; [2],0
same,Nutsedge plant response rating,purple nutsedge; [3],0
same,Nutsedge plant response rating,purple nutsedge; [4],0
same,Nutsedge plant response rating,purple nutsedge; [5],0
same,Nutsedge plant response rating,purple nutsedge; [6],0
same,"Plant response rating (0 to 10; 0 is no effect, 10 is complete control), Nutsedge","purple nutsedge; Rate 250 g/ha, Postemergence",0
same,Nutsedge plant response rating,purple nutsedge; [7],0
same,Rape plant response rating,rape; [1],0
same,Rape plant response rating (0 to 10 scale),rape; [2],0
same,Rape plant response rating,rape; [3],0
same,Rape plant response rating,rape; [4],0
same,Rape plant response rating,rape; [5],0
same,Rape plant response rating,rape; [6],0
same,"Plant response rating (0 to 10; 0 is no effect, 10 is complete control), Rape","rape; Rate 250 g/ha, Postemergence",0
same,Rape plant response rating,rape; [7],0
same,Wheat plant response rating,wheat; [1],0
same,Wheat plant response rating,wheat; [3],0
same,Wheat plant response rating,wheat; [4],0
same,Wheat plant response rating,wheat; [5],0
same,Wheat plant response rating,wheat; [6],0
same,"Plant response rating (0 to 10; 0 is no effect, 10 is complete control), Wheat","wheat; Rate 250 g/ha, Postemergence",0

# Reference: patent publication US6737383B1, “Herbicidal oxadiazolidines” (priority 1999, dated 2004)
